Patent US8592477B2, “Polymorphic form of rotigotine and process for production” (UCB Pharma GmbH, priority 2007, dated 2013)

Columns and labels:
[1] = Thermodynamic stability from DSC data (melting point, enthalpy of fusion, Burger-Ramberger rules); type: physicochemical; settings: heating rate 10° C./min, 30° C. to 140° C., all considered temperatures
Experimental: Further, differential scanning calorimetry (DSC) data reveal the difference between the two polymorphic forms of Rotigotine (FIGS. 7 and 8). […] Therefore, the two polymorphs of Rotigotine appear to be monotropically related.
Thermal behavior investigations of Rotigotine of polymorphic form (I) (batch 1608726) and of polymorphic form (II) (batch 7769396) were performed on a Mettler Toledo DSC system and on a TA instrument (Q-1000). The analyses were carried out with a heating rate of 10° C./min in pierced aluminum crucibles in a temperature range from 30° C. to 140° C.
In sum, the two polymorphic forms of Rotigotine can be differentiated by their respective melting point and their respective enthalpy of fusion. […] Therefore, the two polymorphs of Rotigotine are most probably monotropically related.

[2] = Solubility in EtOH at room temperature; type: physicochemical; settings: form (II) vs form (I)

CCCN(CCc1cccs1)[C@H]1CCc2c(O)cccc2C1 [polymorphic form (II), (−)-5,6,7,8-tetrahydro-6-[propyl-[2-(2-thienyl)ethyl]-amino]-1-naphthalenol]
thermodynamic stability relative to the other polymorph [1]: thermodynamically more stable than polymorphic form (I) | solubility in EtOH relative to polymorphic form (I) [2]: at least five times lower
